{
  "source": "ChEMBL document CHEMBL1201862",
  "about": "“PubChem BioAssay data set” (2004)",
  "key": {"[1]": {"target": "T1, Corticotropin-releasing factor receptor 2/Corticotropin-releasing factor-binding protein (Homo sapiens, UniProt P24387+Q13324)", "T1 sequence (Q13324 whole entry)": "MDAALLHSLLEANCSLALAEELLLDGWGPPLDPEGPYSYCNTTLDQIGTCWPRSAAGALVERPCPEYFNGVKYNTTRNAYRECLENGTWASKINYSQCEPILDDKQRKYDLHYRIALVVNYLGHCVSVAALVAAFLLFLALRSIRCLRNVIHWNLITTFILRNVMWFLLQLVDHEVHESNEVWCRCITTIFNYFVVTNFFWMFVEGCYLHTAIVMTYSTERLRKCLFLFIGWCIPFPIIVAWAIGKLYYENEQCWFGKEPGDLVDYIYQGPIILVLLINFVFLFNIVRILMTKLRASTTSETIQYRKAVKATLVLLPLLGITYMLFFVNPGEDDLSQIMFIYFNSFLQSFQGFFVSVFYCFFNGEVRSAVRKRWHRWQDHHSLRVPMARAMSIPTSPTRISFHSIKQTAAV", "T1 sequence (P24387 whole entry)": "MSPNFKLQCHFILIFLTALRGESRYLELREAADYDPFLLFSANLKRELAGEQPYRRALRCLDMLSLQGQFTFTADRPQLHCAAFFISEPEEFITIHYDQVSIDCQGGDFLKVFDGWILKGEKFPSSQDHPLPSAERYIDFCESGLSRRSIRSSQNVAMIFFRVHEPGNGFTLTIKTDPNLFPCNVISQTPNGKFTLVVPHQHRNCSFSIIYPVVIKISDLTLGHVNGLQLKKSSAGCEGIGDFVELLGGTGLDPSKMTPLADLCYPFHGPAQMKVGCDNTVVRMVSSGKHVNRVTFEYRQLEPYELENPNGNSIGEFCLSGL", "test": "activators of CRF receptor 2 with binding protein – uHTS hits, confirmation (AID 602473)", "format": "functional", "settings": "read-out: EC50_Mean"}, "[2]": {"target": "Envelope glycoprotein gp160 (Human immunodeficiency virus 1, UniProt Q6QLK5)", "sequence (Q6QLK5 whole entry, the tested form may be a part)": "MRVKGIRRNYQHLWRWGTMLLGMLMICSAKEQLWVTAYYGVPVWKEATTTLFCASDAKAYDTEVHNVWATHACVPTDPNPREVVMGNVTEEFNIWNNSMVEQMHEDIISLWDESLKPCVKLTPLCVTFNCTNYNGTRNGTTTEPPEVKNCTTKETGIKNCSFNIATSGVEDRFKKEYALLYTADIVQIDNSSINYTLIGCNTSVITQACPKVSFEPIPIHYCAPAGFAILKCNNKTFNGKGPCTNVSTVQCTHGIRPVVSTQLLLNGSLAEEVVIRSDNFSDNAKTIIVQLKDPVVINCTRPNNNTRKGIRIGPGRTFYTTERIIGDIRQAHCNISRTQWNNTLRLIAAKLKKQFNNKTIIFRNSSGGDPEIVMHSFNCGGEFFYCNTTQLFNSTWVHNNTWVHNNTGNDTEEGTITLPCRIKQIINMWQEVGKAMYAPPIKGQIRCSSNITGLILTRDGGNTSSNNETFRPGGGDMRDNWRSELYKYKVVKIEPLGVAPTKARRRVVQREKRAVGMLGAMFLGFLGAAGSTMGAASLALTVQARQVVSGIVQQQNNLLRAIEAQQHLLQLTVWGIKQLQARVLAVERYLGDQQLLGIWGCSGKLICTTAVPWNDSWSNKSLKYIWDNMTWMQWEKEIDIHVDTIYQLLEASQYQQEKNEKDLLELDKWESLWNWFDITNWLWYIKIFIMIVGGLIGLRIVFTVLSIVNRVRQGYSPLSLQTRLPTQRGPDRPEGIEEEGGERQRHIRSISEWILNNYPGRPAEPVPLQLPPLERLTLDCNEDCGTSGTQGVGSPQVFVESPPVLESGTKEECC", "test": "cell-free HIV fusion peptide-binding blockers – biochemical, uHTS, fluorescence dequenching, […] (AID 1986)"}, "[3]": {"target": "T1, Corticotropin-releasing factor receptor 2/Corticotropin-releasing factor-binding protein", "test": "Dose Response confirmation of uHTS hits for small molecule antagonists of the CRF-binding protein and CRF-R2 receptor complex.", "format": "functional", "settings": "read-out: IC50_Mean"}, "[4]": {"test": "blockers of CRF-binding protein–CRF-R2 complex – cell-based, uHTS hits, 384-well, dose response (AID 651639)", "format": "functional, Homo sapiens", "settings": "read-out: IC50_Mean"}, "[5]": {"target": "T2, Carboxy-terminal domain RNA polymerase II polypeptide A small phosphatase 1 (Homo sapiens, UniProt Q9GZU7)", "T2 sequence (Q9GZU7 whole entry)": "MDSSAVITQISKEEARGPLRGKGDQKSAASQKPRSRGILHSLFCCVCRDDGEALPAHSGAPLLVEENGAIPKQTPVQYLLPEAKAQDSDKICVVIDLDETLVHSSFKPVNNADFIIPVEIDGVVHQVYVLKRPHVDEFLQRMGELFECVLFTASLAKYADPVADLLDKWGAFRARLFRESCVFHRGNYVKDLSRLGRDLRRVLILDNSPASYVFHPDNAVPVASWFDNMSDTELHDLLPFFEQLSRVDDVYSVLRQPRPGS", "test": "CTDSP1 inhibitors, concentration-response, biochemical, absorbance readout, ultra-high-throughput screen actives (AID 540297)", "format": "functional"}, "[6]": {"test": "A Cell Based Assay for the Identification of Probe candidate Compounds with Anti- Venezuelan Equine Encephalitis virus. [Related pubchem assays: 2409, 2419, 1621, 2238, 2405, 2024, 2065, 2402, 2414, 1635, 1650, 2244 ]", "format": "functional"}, "[7]": {"target": "T3, Ubiquitin-conjugating enzyme E2 N (Homo sapiens, UniProt P61088)", "T3 sequence (P61088 whole entry)": "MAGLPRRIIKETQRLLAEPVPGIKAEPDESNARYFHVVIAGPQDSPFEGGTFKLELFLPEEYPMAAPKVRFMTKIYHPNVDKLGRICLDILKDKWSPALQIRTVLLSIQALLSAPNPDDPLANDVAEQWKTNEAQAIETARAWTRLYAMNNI", "format": "functional"}, "Vero [8]": {"tested_on": "Vero", "test": "Vero cell viability after compound exposure – synthesized analogs, set II, cytotoxicity control for West Nile virus antiviral project, SAR follow-up (AID 2402)", "format": "functional", "settings": "Chlorocebus sabaeus"}, "Vero [9]": {"tested_on": "Vero", "test": "host cell viability loss, Vero E6 – synthesized analogs, cytotoxicity control for West Nile virus antiviral project, SAR follow-up (AID 2244)", "format": "functional", "settings": "Chlorocebus sabaeus"}, "Vero [10]": {"tested_on": "Vero", "test": "antiviral protection of cells from WNV – synthesized analogs, SAR follow-up (AID 2238)", "format": "functional, cell-based", "settings": "Chlorocebus sabaeus"}, "Vero [11]": {"tested_on": "Vero", "test": "Vero 76 cell viability after compound exposure – Vero 76 cells, synthesized analogs, cytotoxicity control for West Nile virus antiviral project, SAR follow-up (AID 2414)", "format": "functional", "settings": "Chlorocebus sabaeus"}, "[12]": {"target": "Glyceraldehyde-3-phosphate dehydrogenase (Homo sapiens, UniProt P04406)", "sequence (P04406 whole entry)": "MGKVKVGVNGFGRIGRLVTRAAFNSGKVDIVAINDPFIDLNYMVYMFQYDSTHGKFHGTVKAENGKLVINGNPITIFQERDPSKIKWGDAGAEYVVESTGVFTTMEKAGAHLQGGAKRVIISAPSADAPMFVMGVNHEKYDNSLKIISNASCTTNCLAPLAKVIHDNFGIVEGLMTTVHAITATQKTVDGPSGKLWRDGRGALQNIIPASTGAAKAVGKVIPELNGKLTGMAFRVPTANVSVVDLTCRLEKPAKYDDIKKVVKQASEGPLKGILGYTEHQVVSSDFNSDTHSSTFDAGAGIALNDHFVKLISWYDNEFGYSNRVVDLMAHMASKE"}, "[13]": {"target": "Alkaline phosphatase, placental type (Homo sapiens, UniProt P05187)", "sequence (P05187 whole entry)": "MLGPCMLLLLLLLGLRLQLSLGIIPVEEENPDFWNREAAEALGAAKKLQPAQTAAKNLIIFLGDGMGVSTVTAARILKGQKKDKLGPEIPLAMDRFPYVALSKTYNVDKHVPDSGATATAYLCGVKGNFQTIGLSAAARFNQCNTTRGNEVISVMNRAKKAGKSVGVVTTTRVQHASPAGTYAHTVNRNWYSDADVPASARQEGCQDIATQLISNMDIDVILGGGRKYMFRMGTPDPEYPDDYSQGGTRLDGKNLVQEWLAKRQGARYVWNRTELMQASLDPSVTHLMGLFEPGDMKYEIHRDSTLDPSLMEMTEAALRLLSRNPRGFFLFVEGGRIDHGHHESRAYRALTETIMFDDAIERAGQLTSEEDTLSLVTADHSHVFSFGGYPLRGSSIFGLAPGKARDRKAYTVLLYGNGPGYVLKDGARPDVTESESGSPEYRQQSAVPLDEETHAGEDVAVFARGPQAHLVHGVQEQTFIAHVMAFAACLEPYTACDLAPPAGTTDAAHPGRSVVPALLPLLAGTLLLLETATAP", "test": "human placental alkaline phosphatase inhibition – biochemical, luminescence, confirmation (AID 1512)", "format": "functional"}, "[14]": {"target": "T4, Kappa-type opioid receptor (Homo sapiens, UniProt P41145)", "T4 sequence (P41145 whole entry)": "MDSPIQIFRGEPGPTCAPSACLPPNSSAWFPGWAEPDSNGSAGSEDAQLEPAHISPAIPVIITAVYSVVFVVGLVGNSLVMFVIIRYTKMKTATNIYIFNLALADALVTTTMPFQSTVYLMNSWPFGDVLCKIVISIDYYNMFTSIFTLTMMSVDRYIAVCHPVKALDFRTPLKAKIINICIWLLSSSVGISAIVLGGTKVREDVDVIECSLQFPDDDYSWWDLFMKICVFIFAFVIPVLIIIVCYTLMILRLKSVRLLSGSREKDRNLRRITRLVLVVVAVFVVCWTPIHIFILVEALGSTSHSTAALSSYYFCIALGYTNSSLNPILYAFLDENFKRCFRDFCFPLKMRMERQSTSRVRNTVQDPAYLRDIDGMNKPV", "format": "functional"}, "Prothrombin": {"target": "Prothrombin (Bos taurus, UniProt P00735)", "test": "thrombin protease inhibitors – biochemical, fluorescence polarization, uHTS hits, dose response (AID 602369)", "format": "functional"}, "[15]": {"target": "T4, Kappa-type opioid receptor", "format": "functional", "remark": "listed apart in the source"}, "[16]": {"target": "72 kDa type IV collagenase (Homo sapiens, UniProt P08253)", "sequence (P08253 whole entry)": "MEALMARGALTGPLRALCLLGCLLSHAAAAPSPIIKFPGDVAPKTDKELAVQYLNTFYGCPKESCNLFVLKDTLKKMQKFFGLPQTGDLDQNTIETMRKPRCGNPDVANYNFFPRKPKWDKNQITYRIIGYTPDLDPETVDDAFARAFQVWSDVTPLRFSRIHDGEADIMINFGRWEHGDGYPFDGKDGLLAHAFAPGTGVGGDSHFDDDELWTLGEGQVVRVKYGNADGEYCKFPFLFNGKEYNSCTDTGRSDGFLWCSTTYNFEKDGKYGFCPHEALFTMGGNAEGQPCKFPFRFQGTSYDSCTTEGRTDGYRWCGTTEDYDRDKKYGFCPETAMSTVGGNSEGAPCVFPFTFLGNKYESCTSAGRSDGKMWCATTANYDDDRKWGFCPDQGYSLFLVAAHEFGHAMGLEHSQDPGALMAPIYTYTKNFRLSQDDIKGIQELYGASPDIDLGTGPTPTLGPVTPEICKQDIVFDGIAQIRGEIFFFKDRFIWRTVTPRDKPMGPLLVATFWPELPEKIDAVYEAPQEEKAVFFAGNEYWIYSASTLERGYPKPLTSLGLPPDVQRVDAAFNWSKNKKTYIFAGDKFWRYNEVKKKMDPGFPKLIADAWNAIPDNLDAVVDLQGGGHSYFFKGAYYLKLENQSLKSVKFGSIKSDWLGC", "test": "Dose Response validation of uHTS RPN11 inhibitor hits using a MMP-2 Fluorescence assay.", "format": "functional"}, "Insulin-degrading enzyme": {"target": "T5, Insulin-degrading enzyme (Homo sapiens, UniProt P14735)", "T5 sequence (P14735 whole entry)": "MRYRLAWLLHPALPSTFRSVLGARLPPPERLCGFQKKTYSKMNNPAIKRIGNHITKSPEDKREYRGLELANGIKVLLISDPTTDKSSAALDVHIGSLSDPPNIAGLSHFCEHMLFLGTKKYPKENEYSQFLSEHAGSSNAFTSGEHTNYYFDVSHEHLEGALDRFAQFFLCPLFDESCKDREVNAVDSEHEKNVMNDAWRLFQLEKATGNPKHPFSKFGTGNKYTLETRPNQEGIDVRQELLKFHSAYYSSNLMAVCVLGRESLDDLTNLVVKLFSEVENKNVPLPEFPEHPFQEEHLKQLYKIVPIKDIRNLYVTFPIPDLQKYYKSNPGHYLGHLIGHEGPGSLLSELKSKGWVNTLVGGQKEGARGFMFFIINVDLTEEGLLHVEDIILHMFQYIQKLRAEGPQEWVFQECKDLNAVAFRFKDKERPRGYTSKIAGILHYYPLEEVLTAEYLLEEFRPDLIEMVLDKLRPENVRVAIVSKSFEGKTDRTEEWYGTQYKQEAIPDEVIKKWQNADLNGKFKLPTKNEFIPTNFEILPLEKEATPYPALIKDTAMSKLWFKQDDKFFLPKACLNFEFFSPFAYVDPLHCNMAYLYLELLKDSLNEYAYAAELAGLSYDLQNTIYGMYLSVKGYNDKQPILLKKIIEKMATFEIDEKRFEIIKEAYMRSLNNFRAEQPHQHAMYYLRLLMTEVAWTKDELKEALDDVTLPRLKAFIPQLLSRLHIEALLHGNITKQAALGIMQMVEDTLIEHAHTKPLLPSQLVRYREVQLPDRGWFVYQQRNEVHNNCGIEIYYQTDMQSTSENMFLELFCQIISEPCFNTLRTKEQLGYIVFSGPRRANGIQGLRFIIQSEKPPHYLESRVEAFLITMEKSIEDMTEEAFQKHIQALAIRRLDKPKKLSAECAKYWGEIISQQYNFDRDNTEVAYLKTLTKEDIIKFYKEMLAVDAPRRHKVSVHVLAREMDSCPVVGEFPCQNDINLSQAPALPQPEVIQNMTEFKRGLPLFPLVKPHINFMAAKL", "test": "Dose Response: Fluorescence polarization-based cell-based high throughput dose response assay for inhibitors of insulin-degrading enzyme (IDE). [Related pubchem assays: 434962 (Primary screen (IDE inhibitors in singlicate)), 449730 (Counterscreen (Cytotoxicity in triplicate)), 435028 (Confirmation (IDE inhibitors in triplicate)), 434984 (Summary …", "format": "functional"}, "Beta-galactosidase": {"target": "Beta-galactosidase (Escherichia coli, UniProt Q8VNN2)", "sequence (Q8VNN2 whole entry)": "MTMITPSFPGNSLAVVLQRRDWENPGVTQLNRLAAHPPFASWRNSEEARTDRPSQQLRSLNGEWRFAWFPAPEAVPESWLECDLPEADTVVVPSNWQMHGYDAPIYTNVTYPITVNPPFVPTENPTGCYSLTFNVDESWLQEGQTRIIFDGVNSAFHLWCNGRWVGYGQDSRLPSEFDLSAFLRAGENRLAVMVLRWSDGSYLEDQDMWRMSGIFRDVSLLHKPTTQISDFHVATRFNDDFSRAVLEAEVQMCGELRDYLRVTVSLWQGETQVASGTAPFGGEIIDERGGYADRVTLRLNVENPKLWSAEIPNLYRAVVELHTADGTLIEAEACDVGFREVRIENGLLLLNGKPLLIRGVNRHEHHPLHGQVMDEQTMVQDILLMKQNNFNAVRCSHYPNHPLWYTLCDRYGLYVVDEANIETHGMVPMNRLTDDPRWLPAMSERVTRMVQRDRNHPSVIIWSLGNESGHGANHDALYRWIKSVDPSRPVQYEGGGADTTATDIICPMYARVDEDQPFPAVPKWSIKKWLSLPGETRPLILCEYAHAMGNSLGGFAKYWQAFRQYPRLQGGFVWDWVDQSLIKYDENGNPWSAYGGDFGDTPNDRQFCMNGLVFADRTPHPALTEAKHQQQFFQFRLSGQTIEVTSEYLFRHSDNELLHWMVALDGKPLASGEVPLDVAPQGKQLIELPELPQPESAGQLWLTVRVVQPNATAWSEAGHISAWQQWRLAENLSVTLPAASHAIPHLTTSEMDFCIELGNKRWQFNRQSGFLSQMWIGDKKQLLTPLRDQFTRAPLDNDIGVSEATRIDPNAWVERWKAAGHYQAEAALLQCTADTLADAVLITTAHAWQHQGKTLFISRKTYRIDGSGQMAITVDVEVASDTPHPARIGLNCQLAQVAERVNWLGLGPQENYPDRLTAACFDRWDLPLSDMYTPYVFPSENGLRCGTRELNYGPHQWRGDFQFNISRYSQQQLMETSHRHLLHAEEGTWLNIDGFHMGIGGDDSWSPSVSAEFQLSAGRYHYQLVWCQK", "format": "functional"}, "[17]": {"target": "26S proteasome non-ATPase regulatory subunit 14 (Homo sapiens, UniProt O00487)", "sequence (O00487 whole entry)": "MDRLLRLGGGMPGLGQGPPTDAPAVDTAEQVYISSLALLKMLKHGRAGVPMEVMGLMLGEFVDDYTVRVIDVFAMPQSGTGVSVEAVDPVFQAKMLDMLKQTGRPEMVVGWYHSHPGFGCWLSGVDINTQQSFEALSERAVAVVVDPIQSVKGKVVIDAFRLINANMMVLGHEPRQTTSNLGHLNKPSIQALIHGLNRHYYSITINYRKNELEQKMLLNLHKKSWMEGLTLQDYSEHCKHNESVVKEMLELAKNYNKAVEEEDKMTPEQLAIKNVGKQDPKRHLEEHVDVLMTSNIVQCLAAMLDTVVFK", "test": "inhibition of proteasome subunit RPN11 – biochemical, fluorescence polarization, uHTS hits, confirmation (AID 602368)", "format": "functional"}, "[18]": {"target": "T6, Rac GTPase-activating protein 1 (Homo sapiens, UniProt Q9H0H5)", "T6 sequence (Q9H0H5 whole entry)": "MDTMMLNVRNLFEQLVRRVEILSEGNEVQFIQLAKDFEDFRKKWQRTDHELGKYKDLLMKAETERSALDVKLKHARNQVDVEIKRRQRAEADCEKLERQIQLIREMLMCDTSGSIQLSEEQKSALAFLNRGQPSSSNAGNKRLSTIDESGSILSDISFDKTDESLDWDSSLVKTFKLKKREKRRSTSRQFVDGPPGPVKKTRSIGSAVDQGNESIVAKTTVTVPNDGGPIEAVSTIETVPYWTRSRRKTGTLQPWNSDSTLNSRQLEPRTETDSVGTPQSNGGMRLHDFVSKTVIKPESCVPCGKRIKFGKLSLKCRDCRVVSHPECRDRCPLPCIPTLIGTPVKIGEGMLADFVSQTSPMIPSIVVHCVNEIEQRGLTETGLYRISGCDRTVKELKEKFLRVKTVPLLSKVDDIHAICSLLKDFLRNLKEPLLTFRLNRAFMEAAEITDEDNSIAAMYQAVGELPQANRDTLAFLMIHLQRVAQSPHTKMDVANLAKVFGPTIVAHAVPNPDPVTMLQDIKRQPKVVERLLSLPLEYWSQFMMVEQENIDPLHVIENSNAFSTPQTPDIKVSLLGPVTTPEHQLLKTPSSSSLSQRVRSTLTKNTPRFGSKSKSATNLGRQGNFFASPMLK", "test": "blockers of MgcRacGAP-driven Rac1 GTP hydrolysis – biochemical, ADP Hunter fluorescence, primary and confirmatory, confirmation (AID 624330)", "format": "functional"}, "[19]": {"test": "Counterscreen for IDE inhibitors: Luminescence-based cell-based high throughput dose response assay to identify compounds that are cytotoxic to HEK cells. [Related pubchem assays: 434962 (Primary screen (IDE inhibitors in singlicate)), 449730 (Counterscreen (Cytotoxicity in triplicate)), 435028 (Confirmation (IDE inhibitors in triplicate)) …", "format": "functional", "settings": "HEK293"}, "T-cell": {"tested_on": "T-cell", "test": "loss of vesicle association with mouse CD8+ T cells – mouse 2C CD8+ T cells, flow cytometry, dose response (AID 485284)", "format": "functional"}},
  "note": "Active and inactive are the calls of the source.",
  "data": [
    {"smiles": "COc1cc(/C=C2\\C(=N)N3N=C(S(C)(=O)=O)SC3=NC2=O)ccc1OCCOc1ccc(C)cc1", "values": [
      {"measurement": "EC50", "setting": "[1]", "value": "> 53 µM (inactive)"},
      {"measurement": "IC50", "setting": "[2]", "value": "> 99 µM (inactive)"},
      {"measurement": "IC50", "setting": "[3]", "value": "1.84 µM (active)"},
      {"measurement": "IC50", "setting": "[4]", "value": "4.48 µM (active)"},
      {"measurement": "IC50", "setting": "[5]", "value": "3.15 µM (active)"}
    ]},
    {"smiles": "CCCN1CCN(CCCNC(=O)c2cc3c(s2)-c2c(C)cccc2OC3)CC1", "values": [
      {"measurement": "IC50", "setting": "[6]", "value": "10.4 µM (active)"},
      {"measurement": "IC50", "setting": "[7]", "value": "> 20 µM (inactive)"},
      {"measurement": "CC50", "setting": "Vero [8]", "value": "12.3 µM (active)"},
      {"measurement": "CC50", "setting": "Vero [9]", "value": "12.4 µM (active)"},
      {"measurement": "IC50", "setting": "Vero [10]", "value": "> 40 µM (active)"},
      {"measurement": "CC50", "setting": "Vero [11]", "value": "28.4 µM (active)"}
    ]},
    {"smiles": "O=C1c2ccccc2C(=O)N1c1nc(Cc2ccccc2)n[nH]1", "values": [
      {"measurement": "IC50", "setting": "[12]", "value": "> 100 µM (not active)"},
      {"measurement": "IC50", "setting": "[13]", "value": "> 100 µM (inactive)"}
    ]},
    {"smiles": "COc1cc(/C=C2/SC(=S)N(c3c(C)n(C)n(-c4ccccc4)c3=O)C2=O)ccc1O", "values": [
      {"measurement": "IC50", "setting": "[14]", "value": "12.7 µM (active)"},
      {"measurement": "IC50", "setting": "Prothrombin", "value": "68.1 µM (active)"},
      {"measurement": "IC50", "setting": "[15]", "value": "> 32", "unit": "µM"},
      {"measurement": "IC50", "setting": "[16]", "value": "62.4 µM (active)"},
      {"measurement": "IC50", "setting": "Insulin-degrading enzyme", "value": "7.99 µM (active)"},
      {"measurement": "EC50", "setting": "Beta-galactosidase", "value": "13 µM (active)"},
      {"measurement": "IC50", "setting": "[17]", "value": "24.4 µM (active)"},
      {"measurement": "IC50", "setting": "[18]", "value": "43.7 µM (active)"},
      {"measurement": "IC50", "setting": "[19]", "value": "> 55.7 µM (not active)"}
    ]},
    {"smiles": "O=C(CS(=O)(=O)Cc1ccccc1)N1CCc2ccccc21", "values": [
      {"measurement": "EC50", "setting": "T-cell", "value": "14.1 µM (active)"}
    ]}
  ]
}
